Assay [1] concerns the target human mu-opioid peptide (hMOP) receptor (Homo sapiens (Human), UniProt P35372). Kind of assay: hMOP receptor binding assay (SPA). The method, then:
Human Mu-Opioidpeptide (hMOP) Receptor Binding Assay
The hMOP receptor binding assay was performed as homogeneous SPA-assay (scintillation proximity assay) using the assay buffer 50 mM TRIS-HCl (pH 7.4) supplemented with 0.052 mg/ml bovine serum albumin (Sigma-Aldrich Co. St. Louis, Mo.). […] The assay was started by adding wheat germ agglutinin coated SPA beads (GE Healthcare UK Ltd. Buckinghamshire. UK) which had been preloaded with hMOP receptor membranes (PerkinElmer Life Sciences. Inc. Boston, Mass. USA).

For assay [2], the target named is human nociceptin/orphanin FQ peptide (hNOP) receptor (Homo sapiens (Human), UniProt P41146). Kind of assay: hNOP receptor binding assay (SPA). The method, then: Human Nociceptin/Orphanin FQ Peptide (hNOP) Receptor Binding Assay
The hNOP receptor binding assay was performed as homogeneous SPA-assay (scintillation proximity assay) using the assay buffer 50 mM TRIS-HCl, 10 mM MgCl2, 1 mM EDTA (pH 7.4). The final assay volume (250 μl/well) included 0.5 nM of [leucyl-^3H]nociceptin as ligand (PerkinElmer Life Sciences. Inc. Boston, Mass. USA) and either test compound in dilution series or 1 μM unlabelled nociceptin for determination of unspecific binding. The test compound was diluted with 25% DMSO in H2O to yield a final 0.5% DMSO concentration which also served as a respective vehicle control. The assay was started by adding wheat germ agglutinin coated SPA beads (GE Healthcare UK Ltd. Buckinghamshire. UK) which had been preloaded with hNOP receptor membranes (PerkinElmer Life Sciences. Inc. Boston, Mass. USA). After incubation for 60 minutes at RT and centrifugation for 20 minutes at 500 rpm the signal rate was measured by means of a 1450 Microbeta Trilux ß-counter (PerkinElmer Life Sciences/Wallac. Turku. Finland). Half-maximal inhibitory concentration (IC50) values reflecting 50% displacement of [^3H]nociceptin-specific receptor binding were calculated by nonlinear regression analysis and Ki values were calculated by using the Cheng-Prusoff equation. (Cheng and Prusoff. 1973).

The mark [3] stands for this setting: Ki, displacement of [3H]naloxone, hMOP receptor membranes, read-out: hMOP Ki [nM] or % inhibition at 1 μM.
Where [4] appears, read: Ki, displacement of [leucyl-3H]nociceptin, hNOP receptor membranes, read-out: hNOP Ki [nM] or % inhibition at 1 μM.
[5] abbreviates: read-out: hMOP Ki [nM] or % inhibition at 1 μM.

Like-named read-outs stand apart in the source and are kept apart here.

Data on 18 molecules can be found in patent publication US10738015B2, “1,3-diaza-spiro-[3.4]-octane derivatives” (priority 2017, dated 2020).

Chain of human mu-opioid peptide (hMOP) receptor (P35372 whole entry): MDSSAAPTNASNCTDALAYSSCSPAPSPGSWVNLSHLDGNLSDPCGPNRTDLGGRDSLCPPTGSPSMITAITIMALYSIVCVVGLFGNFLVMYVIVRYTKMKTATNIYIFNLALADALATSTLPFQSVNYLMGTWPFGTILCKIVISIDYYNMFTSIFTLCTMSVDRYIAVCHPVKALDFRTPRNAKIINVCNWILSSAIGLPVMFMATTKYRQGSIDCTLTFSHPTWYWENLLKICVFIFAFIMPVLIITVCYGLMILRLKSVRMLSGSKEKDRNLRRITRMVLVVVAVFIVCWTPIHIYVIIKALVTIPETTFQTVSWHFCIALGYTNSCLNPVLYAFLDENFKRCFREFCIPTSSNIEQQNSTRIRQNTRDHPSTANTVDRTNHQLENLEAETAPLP

What is called Ki is the dissociation constant of the complex between target and ligand, obtained from inhibition or displacement. In the case of `COc1nc(C#N)ncc1N1C[C@]2(C[C@@](c3ccccc3)(N(C)C)C2)NC1=O` [SC-5, trans-5-(2-(dimethylamino)-6-oxo-2-phenyl-5,7-diazaspiro[3.4]octan-7-yl)-4-methoxypyrimidine-2-carbonitrile], the inhibition constant Ki was determined as 99 nM in assay [1] (setting [3]) and 800 nM in assay [2] (setting [4]).

Consider `Cc1cc(N2CCOCC2)ncc1N1C[C@]2(C[C@](c3ccccc3)(N(C)C)C2)NC1=O` [SC-19, Cis-2-(dimethylamino)-7-(4-methyl-6-morpholinopyridin-3-yl)-2-phenyl-5,7-diazaspiro[3.4]octan-6-one], for which the figures for the Ki in assay [1] (setting [3]) and in assay [2] (setting [4]) were 5890 nM and 1810 nM, respectively.

For the molecule `CN(C)[C@]1(c2cccc(F)c2)C[C@@]2(CN(c3ccc(OC(F)(F)F)cn3)C(=O)N2CC2(O)CCC2)C1` [SC-27, Cis-2-(dimethylamino)-2-(3-fluorophenyl)-5-((1-hydroxycyclobutyl)methyl)-7-(5-(trifluoromethoxy)pyridin-2-yl)-5,7-diazaspiro[3.4]octan-6-one], the Ki was found to be 335 nM in assay [1] (setting [3]) and 12 nM in assay [2] (setting [4]).

`Cc1cc(C2CC2)ncc1N1C[C@]2(C[C@](c3ccccc3)(N(C)C)C2)N(CC2CC2)C1=O` [SC-35, Cis-7-(6-cyclopropyl-4-methylpyridin-3-yl)-5-(cyclopropylmethyl)-2-(dimethylamino)-2-phenyl-5,7-diazaspiro[3.4]octan-6-one]: the figures for the Ki in assay [1] (setting [3]) and in assay [2] (setting [4]) were 185 nM and 19 nM, respectively.

Consider `Cc1cc(C2CC2)ncc1N1C[C@]2(C[C@](c3ccccc3)(N(C)C)C2)N(CC2(F)COC2)C1=O` [SC-36, Cis-7-(6-cyclopropyl-4-methylpyridin-3-yl)-2-(dimethylamino)-5-((3-fluorooxetan-3-yl)methyl)-2-phenyl-5,7-diazaspiro[3.4]octan-6-one], for which the Ki in assay [1] (setting [3]) was 330 nM; in assay [2] (setting [4]) it was 10 nM.

As to `CN(C)[C@]1(c2ccccc2)C[C@@]2(CN(c3cnc(-c4ccncc4)nc3)C(=O)N2CC2CC2)C1` [SC-43, Cis-5-(cyclopropylmethyl)-2-(dimethylamino)-2-phenyl-7-(2-pyridin-4-ylpyrimidin-5-yl)-5,7-diazaspiro[3.4]octan-6-one], the inhibition constant (Ki) in assay [1] (setting [3]) turned out to be 83 nM; in assay [2] (setting [4]) it was 31 nM.

As to `CN(C)[C@]1(c2ccccc2)C[C@@]2(CN(c3ccc(OC(F)(F)F)cn3)C(=O)N2CC2(F)COC2)C1` [SC-29, Cis-2-(dimethylamino)-5-((3-fluorooxetan-3-yl)methyl)-2-phenyl-7-(5-(trifluoromethoxy)pyridin-2-yl)-5,7-diazaspiro[3.4]octan-6-one], the Ki in assay [1] (setting [3]) came out at 65 nM; in assay [2] (setting [4]) it was 16 nM.

As to `CN(C)[C@]1(c2cccc(F)c2)C[C@@]2(CN(c3ccc(OC(F)(F)F)cn3)C(=O)N2CC2(F)CC2)C1` [SC-26, Cis-2-(dimethylamino)-5-((1-fluorocyclopropyl)methyl)-2-(3-fluorophenyl)-7-(5-(trifluoromethoxy)pyridin-2-yl)-5,7-diazaspiro[3.4]octan-6-one], the Ki was 1020 nM in assay [1] (setting [3]) and 91 nM in assay [2] (setting [4]).

`CN(C)[C@]1(c2cccc(F)c2)C[C@@]2(CN(Cc3ccc(N4CCOCC4)cc3)C(=O)N2)C1` [SC-41, cis-2-(dimethylamino)-2-(3-fluorophenyl)-7-(4-morpholinobenzyl)-5,7-diazaspiro[3.4]octan-6-one]: the Ki in assay [1] (setting [3]) turned out to be 465 nM; in assay [2] it was 21 nM.

Turning to `CN(C)[C@]1(c2ccccc2)C[C@@]2(CN(CC3(O)CCC3)C(=O)N2CC2CC2)C1` [SC-46, Cis-5-(cyclopropylmethyl)-2-(dimethylamino)-7-[(1-hydroxycyclobutyl)methyl]-2-phenyl-5,7-diazaspiro[3.4]octan-6-one], the Ki in assay [1] (setting [3]) was determined as 48 nM; in assay [2] (setting [4]), 29 nM.

On to `CN(C)[C@]1(c2ccccc2)C[C@@]2(CN(c3cnc(C#N)c(C(F)(F)F)c3)C(=O)N2CC2CC2)C1` [SC-40, Cis-5-[5-(cyclopropylmethyl)-2-(dimethylamino)-6-oxo-2-phenyl-5,7-diazaspiro[3.4]octan-7-yl]-3-(trifluoromethyl)pyridine-2-carbonitrile], for which the figures for the inhibitory constant (Ki) in assay [1] (setting [3]) and in assay [2] (setting [4]) were 102 nM and 6 nM, respectively.

Regarding `CN(C)[C@]1(c2cccc(F)c2)C[C@@]2(CN(CC3(F)COC3)C(=O)N2CC2CC2)C1` [SC-33, Cis-5-(cyclopropylmethyl)-2-(dimethylamino)-7-((3-fluorooxetan-3-yl)methyl)-2-(3-fluorophenyl)-5,7-diazaspiro[3.4]octan-6-one], the Ki in assay [1] (setting [3]) is 115 nM; in assay [2] (setting [4]), 23 nM.

With `CN(C)[C@]1(c2cccc(F)c2)C[C@@]2(CN(CCS(C)(=O)=O)C(=O)N2CC2CC2)C1` [SC-31, cis-5-(cyclopropylmethyl)-2-(dimethylamino)-2-(3-fluorophenyl)-7-(2-(methylsulfonyl)ethyl)-5,7-diazaspiro[3.4]octan-6-one], the Ki in assay [1] (setting [3]) turned out to be 150 nM; in assay [2], 15 nM.

In general, inhibition refers to the drop in the measured response relative to a control, in per cent. As to `Cc1cc(C(F)F)ncc1N1C[C@]2(C[C@](c3cccc(F)c3)(N(C)C)C2)NC1=O` [SC-22, cis-7-(6-(difluoromethyl)-4-methylpyridin-3-yl)-2-(dimethylamino)-2-(3-fluorophenyl)-5,7-diazaspiro[3.4]octan-6-one], in assay [1] (setting [5]), the inhibition at 1 µM is 11%. The Ki in assay [2] (setting [4]) is 380 nM.

Regarding `CN(C)[C@]1(c2ccccc2)C[C@]2(CN(CC(=O)N3CCS(=O)(=O)CC3)C(=O)N2CC2CCC2)C1` [SC-7, trans-5-(cyclobutylmethyl)-2-(dimethylamino)-7-(2-(1,1-dioxidothiomorpholino)-2-oxoethyl)-2-phenyl-5,7-diazaspiro[3.4]octan-6-one], the Ki in assay [1] (setting [3]) was 2 nM; in assay [2] (setting [4]) it was 230 nM.

For `CN(C)[C@]1(c2ccccc2)C[C@]2(CN(CC(N)=O)C(=O)N2CC2CCC2)C1` [SC-9, Trans-2-(5-(cyclobutylmethyl)-2-(dimethylamino)-6-oxo-2-phenyl-5,7-diazaspiro[3.4]octan-7-yl)acetamide], the Ki turned out to be 48 nM in assay [1] and 380 nM in assay [2] (setting [4]).

Consider `CN(C)[C@]1(c2ccccc2)C[C@@]2(CN(CCC#N)C(=O)N2CC2CC2)C1` [SC-45, Cis-3-[5-(cyclopropylmethyl)-2-(dimethylamino)-6-oxo-2-phenyl-5,7-diazaspiro[3.4]octan-7-yl]propanenitrile], for which the Ki in assay [1] (setting [3]) worked out at 37 nM; in assay [2] (setting [4]), 25 nM.

Regarding `CN(C)[C@]1(c2ccccc2)C[C@@]2(CN(CC(=O)N3CCS(=O)(=O)CC3)C(=O)N2)C1` [SC-2, cis-2-(dimethylamino)-7-(2-(1,1-dioxidothiomorpholino)-2-oxoethyl)-2-phenyl-5,7-diazaspiro[3.4]octan-6-one], the inhibition at 1 µM in assay [1] (setting [5]) was 12%. For the same molecule, in assay [2] (setting [4]), the Ki amounted to 850 nM.
